Reference: ChEMBL document CHEMBL1828550, “Lead identification of β-lactam and related imine inhibitors of the molecular chaperone heat shock protein 90” (Bioorg Med Chem, 2011)
Active and inactive are the calls of the source. The calls are words filed in the database; no cut-off is given here.

What was measured:
MCF7 = experiment: Antiproliferative activity against human MCF7 cells assessed as cell viability after 72 hrs by MTT assay; type: functional, cell-based; details: MCF7, 72 h
[1] = target: T1, Heat shock protein HSP 90-alpha (Homo sapiens, UniProt P07900); experiment: Displacement of FITC-labeled geldanamycin from human recombinant HSP90alpha after 24 hrs by fluorescence displacement assay
[2] = target: T1, Heat shock protein HSP 90-alpha; experiment: Inhibition of Hsp90alpha in human MCF7 assessed as induction of proteasomal ER2alpha protein degradation at 50 uM after 24 hrs by Western blot analysis relative to control
[3] = target: T1, Heat shock protein HSP 90-alpha; experiment: Inhibition of Hsp90alpha in human MCF7 assessed as induction of proteasomal ER2alpha protein degradation at 100 uM after 24 hrs by Western blot analysis relative to control

SMILES	IC50 (MCF7) [µM]	IC50 [1] [µM]	Activity [2]	Activity [3]
CCc1cc([C@@H]2CC(=O)N2c2cc(OC)c(OC)c(OC)c2)c(O)cc1O	31	> 200	–	–
O=C1C[C@@H](c2ccc(O)cc2O)N1c1ccc2c(c1)OCCO2	23	> 200	–	–
CCc1cc([C@@H]2CC(=O)N2c2ccc3c(c2)OCO3)c(O)cc1O	31	> 200	–	–
CCc1cc([C@@H]2CC(=O)N2c2ccc(OC)cc2)c(O)cc1O	52	> 200	–	–
CCc1cc(/C=N/c2ccc3c(c2)OCO3)c(O)cc1O	> 100	22.1	Active	–
CCc1cc([C@@H]2CC(=O)N2c2ccc3c(c2)OCCO3)c(O)cc1O	48	5.6	Active	Active
COc1ccc([C@@H]2CC(=O)N2c2ccc3c(c2)OCCO3)c(OC)c1	53	> 200	–	–
CCc1cc([C@@H]2[C@@H](c3ccccc3)C(=O)N2c2ccc3c(c2)OCCO3)c(O)cc1O	> 100	> 200	–	–
C=CCNC1=C2C[C@@H](C)C[C@H](OC)[C@H](O)[C@@H](C)/C=C(\C)[C@H](OC(N)=O)[C@@H](OC)/C=C\C=C(/C)C(=O)NC(=CC1=O)C2=O [TANESPIMYCIN]	0.09	–	–	–
CCc1cc(/C=N/c2ccc3c(c2)OCCO3)c(O)cc1O	> 100	14.5	Active	–
COc1ccc(OC)c([C@@H]2CC(=O)N2c2ccc3c(c2)OCCO3)c1	54	> 200	–	–
